Data as given in ChEMBL document CHEMBL2396621, “Design, synthesis and biological evaluation of 2-mercapto-3-phenethylquinazoline bearing anilide fragments as potential antitumor agents: molecular docking study” (2013).

Tests used:
Format in all cases: functional
NCI-H322M = assay: Cytotoxicity against human NCI-H322M cells assessed as growth inhibition at 10 uM after 48 hrs by coulter counter analysis; conditions: read-out: GI
NCI-H23 = assay: Cytotoxicity against human NCI-H23 cells assessed as growth inhibition at 10 uM after 48 hrs by coulter counter analysis; conditions: NCI-H23, 48 h, read-out: GI
NCI-H226 = assay: Cytotoxicity against human NCI-H226 cells assessed as growth inhibition at 10 uM after 48 hrs by coulter counter analysis; conditions: NCI-H226, 48 h, read-out: GI
HOP-62 = assay: Cytotoxicity against human HOP62 cells assessed as growth inhibition at 10 uM after 48 hrs by coulter counter analysis; conditions: HOP-62, 48 h, read-out: GI
[1] = Cytotoxicity against human EKVX cells assessed as growth inhibition at 10 uM after 48 hrs by coulter counter analysis; conditions: read-out: GI
HL-60(TB) = assay: Cytotoxicity against human HL-60(TB) cells assessed as growth inhibition at 10 uM after 48 hrs by coulter counter analysis; conditions: HL-60, 48 h, read-out: GI
MOLT-4 = assay: Cytotoxicity against human MOLT4 cells assessed as growth inhibition at 10 uM after 48 hrs by coulter counter analysis; conditions: MOLT-4, 48 h, read-out: GI
Hs-578T = assay: Cytotoxicity against human Hs578T cells assessed as growth inhibition at 10 uM after 48 hrs by coulter counter analysis; conditions: read-out: GI
SN12C = assay: Cytotoxicity against human SN12C cells assessed as growth inhibition at 10 uM after 48 hrs by coulter counter analysis; conditions: read-out: GI
ACHN = assay: Cytotoxicity against human ACHN cells assessed as growth inhibition at 10 uM after 48 hrs by coulter counter analysis; conditions: read-out: GI
OVCAR-4 = assay: Cytotoxicity against human OVCAR4 cells assessed as growth inhibition at 10 uM after 48 hrs by coulter counter analysis; conditions: OVCAR-4, 48 h, read-out: GI
UACC-62 = assay: Cytotoxicity against human UACC62 cells assessed as growth inhibition at 10 uM after 48 hrs by coulter counter analysis; conditions: UACC-62, 48 h, read-out: GI
SK-MEL-28 = assay: Cytotoxicity against human SK-MEL-28 cells assessed as growth inhibition at 10 uM after 48 hrs by coulter counter analysis; conditions: SK-MEL-28, 48 h, read-out: GI
M14 = assay: Cytotoxicity against human M14 cells assessed as growth inhibition at 10 uM after 48 hrs by coulter counter analysis; conditions: M14, 48 h, read-out: GI
U-251 = assay: Cytotoxicity against human U251 cells assessed as growth inhibition at 10 uM after 48 hrs by coulter counter analysis; conditions: U-251, 48 h, read-out: GI
SF-268 = assay: Cytotoxicity against human SF268 cells assessed as growth inhibition at 10 uM after 48 hrs by coulter counter analysis; conditions: SF-268, 48 h, read-out: GI
HT-29 = assay: Cytotoxicity against human HT-29 cells assessed as growth inhibition at 10 uM after 48 hrs by coulter counter analysis; conditions: HT-29, 48 h, read-out: GI
[2] = Cytotoxicity against human leukemia cells after 48 hrs by coulter counter analysis; conditions: Leukemia cell
[3] = Cytotoxicity against human breast cancer cells after 48 hrs by coulter counter analysis; conditions: Cancer cell lines
[4] = Cytotoxicity against human renal cancer cells after 48 hrs by coulter counter analysis; conditions: Cancer cell lines
[5] = Cytotoxicity against human prostate cancer cells after 48 hrs by coulter counter analysis; conditions: Cancer cell lines
[6] = Cytotoxicity against human ovarian cancer cells after 48 hrs by coulter counter analysis; conditions: Cancer cell lines
[7] = Cytotoxicity against human melanoma cells after 48 hrs by coulter counter analysis; conditions: Melanoma cell
[8] = Cytotoxicity against human CNS cancer cells after 48 hrs by coulter counter analysis; conditions: Cancer cell lines
[9] = Cytotoxicity against human colon cancer cells after 48 hrs by coulter counter analysis; conditions: Cancer cell lines
[10] = Cytotoxicity against human non-small cell lung cancer cells after 48 hrs by coulter counter analysis; conditions: Cancer cell lines
[11] = read-out: LC50 (the source's name)

O=C(CSc1nc2ccccc2c(=O)n1CCc1ccccc1)Nc1ccc(F)cc1
inhibition of growth at 10 µM (NCI-H322M): 17% | inhibition of growth at 10 µM (NCI-H23): 12% | inhibition of growth at 10 µM (NCI-H226): < 10% | inhibition of growth at 10 µM (HOP-62): < 10% | inhibition of growth at 10 µM [1]: 24% | inhibition of growth at 10 µM (HL-60(TB)): 25% | inhibition of growth at 10 µM (MOLT-4): 26% | inhibition of growth at 10 µM (Hs-578T): 16% | inhibition of growth at 10 µM (SN12C): 19% | inhibition of growth at 10 µM (ACHN): 16% | inhibition of growth at 10 µM (OVCAR-4): < 10% | inhibition of growth at 10 µM (UACC-62): 25% | inhibition of growth at 10 µM (SK-MEL-28): < 10% | inhibition of growth at 10 µM (M14): 18% | inhibition of growth at 10 µM (U-251): 17% | inhibition of growth at 10 µM (SF-268): < 10% | inhibition of growth at 10 µM (HT-29): 10%

Cc1ccc(NC(=O)CSc2nc3ccccc3c(=O)n2CCc2ccccc2)cc1
inhibition of growth at 10 µM (NCI-H322M): 15% | inhibition of growth at 10 µM (NCI-H23): < 10% | inhibition of growth at 10 µM (NCI-H226): < 10% | inhibition of growth at 10 µM (HOP-62): 42% | inhibition of growth at 10 µM [1]: 29% | inhibition of growth at 10 µM (HL-60(TB)): < 10% | inhibition of growth at 10 µM (MOLT-4): < 10% | inhibition of growth at 10 µM (Hs-578T): 41% | inhibition of growth at 10 µM (SN12C): < 10% | inhibition of growth at 10 µM (ACHN): 21% | inhibition of growth at 10 µM (OVCAR-4): < 10% | inhibition of growth at 10 µM (UACC-62): 20% | inhibition of growth at 10 µM (SK-MEL-28): 22% | inhibition of growth at 10 µM (M14): < 10% | inhibition of growth at 10 µM (U-251): 11% | inhibition of growth at 10 µM (SF-268): 19% | inhibition of growth at 10 µM (HT-29): < 10%

COc1cc(NC(=O)CSc2nc3ccccc3c(=O)n2CCc2ccccc2)cc(OC)c1OC
inhibition of growth at 10 µM (NCI-H322M): 73% | inhibition of growth at 10 µM (NCI-H23): 74% | inhibition of growth at 10 µM (NCI-H226): > 100% | inhibition of growth at 10 µM (HOP-62): 91% | inhibition of growth at 10 µM [1]: 35% | GI50 [2]: > 100 µM | TGI [2]: > 100 µM | GI50 [3]: 2.77 µM | TGI [3]: 44.1 µM | GI50 [4]: 1.77 µM | TGI [4]: 3.63 µM | GI50 [5]: 4.98 µM | TGI [5]: > 100 µM | CC50 [5, 11]: > 100 µM | GI50 [6]: 2.55 µM | TGI [6]: 52 µM | GI50 [7]: 3.3 µM | TGI [7]: 76.6 µM | GI50 [8]: 2.73 µM | TGI [8]: 13.5 µM | CC50 [8, 11]: 75 µM | GI50 [9]: 2.02 µM | TGI [9]: > 100 µM | CC50 [9, 11]: > 100 µM | GI50 [10]: 2.04 µM | TGI [10]: 43.1 µM | CC50 [10, 11]: > 100 µM | inhibition of growth at 10 µM (Hs-578T): 64% | inhibition of growth at 10 µM (SN12C): 75% | inhibition of growth at 10 µM (ACHN): > 100% | inhibition of growth at 10 µM (OVCAR-4): 47% | inhibition of growth at 10 µM (UACC-62): 25% | inhibition of growth at 10 µM (SK-MEL-28): 63% | inhibition of growth at 10 µM (M14): 68% | inhibition of growth at 10 µM (U-251): > 100% | inhibition of growth at 10 µM (SF-268): 87% | inhibition of growth at 10 µM (HT-29): 85%

COc1cc(NC(=O)CCSc2nc3ccccc3c(=O)n2CCc2ccccc2)cc(OC)c1OC
inhibition of growth at 10 µM (NCI-H322M): 28% | inhibition of growth at 10 µM (NCI-H23): 28% | inhibition of growth at 10 µM (NCI-H226): 10% | inhibition of growth at 10 µM (HOP-62): 45% | inhibition of growth at 10 µM [1]: 34% | inhibition of growth at 10 µM (HL-60(TB)): 27% | inhibition of growth at 10 µM (MOLT-4): 40% | inhibition of growth at 10 µM (Hs-578T): 67% | inhibition of growth at 10 µM (SN12C): 16% | inhibition of growth at 10 µM (ACHN): 21% | inhibition of growth at 10 µM (OVCAR-4): 51% | inhibition of growth at 10 µM (UACC-62): 30% | inhibition of growth at 10 µM (SK-MEL-28): 42% | inhibition of growth at 10 µM (M14): 40% | inhibition of growth at 10 µM (U-251): 25% | inhibition of growth at 10 µM (SF-268): 26% | inhibition of growth at 10 µM (HT-29): 18%
